{
  "source": "patent US20210023074A1",
  "about": "“TREATMENT OF DEMYELINATING DISEASES” (Victoria Link Ltd., priority 2018, published 2021)",
  "key": {"[1]": {"tested_on": "myelin in spinal cord of EAE mice", "assay": "TEM of spinal cord sections from EAE mice (myelination)", "format": "in vivo, C57BL/6 mice", "conditions": "0.03 mg/kg i.p. daily from day 17, day 45", "method": "Experimental detail: EAE was induced in female C57BL/6 mice as described in Example 1. On day 17, mice were started on daily treatment with vehicle only or nalmefene at 0.03 mg/kg by i.p. injection. On day 45 after immunization to induce EAE, mice were culled and spinal cords were processed for transmission electron microscopy (TEM)."}, "spinal cord of EAE mice": {"tested_on": "spinal cord of EAE mice", "assay": "Luxol fast blue histology of spinal cord, % demyelination in EAE mice", "format": "in vivo, C57BL/6 mice", "conditions": "0.01 mg/kg i.p. daily from disease onset, chronic phase", "method": "Experimental detail: EAE was induced in female C57BL/6 mice as described in Example 1. On the day of disease onset (score >1), mice were started on daily treatment with vehicle only or nalmefene at 0.01 mg/kg by i.p. injection. During the chronic phase (>24 days post treatment initiation), mice were culled, perfused with 4% paraformaldehyde and spinal cords were processed for histology. […] Shown are the means and standard error of individual values from vehicle (n=7) or 0.01 (n=3) nalmefene-treated EAE mice. *p<0.05 by one-way ANOVA with Holm-Sidak's multiple comparison test."}, "[2]": {"tested_on": "experimental autoimmune encephalomyelitis (EAE) mice", "assay": "EAE model of MS, daily disease score (paralysis), treatment from day 17", "format": "in vivo, C57BL/6 mice", "method": "Experimental detail: Female, C57BL/6 mice were immunized subcutaneously (s.c.) in the hind flanks to induce EAE using myelin oligodendrocyte glycoprotein (MOG) peptide 35-55 (50 μg/mouse) in complete Freund's adjuvant containing heat-killed Mycobacterium tuberculosis (500 μg/mouse). In addition, pertussis toxin (200 ng/mouse) was administered intraperitoneally (i.p.) on days 0 and 2. Mice were weighed and scored daily. On day 17 (dotted line), mice were started on daily treatment with vehicle only (Veh; 10% tween and 10% DMSO in saline) or Nalmefene (NaIM) at 0.1, 0.03, or 0.01 mg/kg by i.p. injection. Nalmefene was supplied by University of Kansas, Synthetic Chemical Biology Core Laboratory, 97.6% pure by HPLC). Treatment allocation was blinded. The disease was scored from 0-5 with 0 (normal), 1 (partial tail paralysis), 2 (full tail paralysis), 3 (one hind limb paralysed or severe disability in both hind limbs), 4 (complete paralysis of both hind limbs) and 5 (moribund). This model is a standard disease model for multiple sclerosis and is described in White et al. 2018. Scientific Reports. 8:259 which is incorporated herein by reference in its entirety. Shown are results combined from 2 independent experiments. ****p<0.0001 by one-way ANOVA with Dunnett's multiple comparison test.\nExperimental detail: EAE was induced in female C57BL/6 mice as described in Example 1. On day 17, mice were started on daily treatment with vehicle only (Veh) or nalmefene (NaIM) at 0.1 or 0.03 mg/kg by i.p. injection. The area under the curve (AUC) was calculated for each mouse based upon the daily disease score and represents the total disability experienced. Shown are results from 1 representative experiment. *p<0.05 by one-way ANOVA with Dunnett's multiple comparison test.\nExperimental detail: EAE was induced in female C57BL/6 mice as described in Example 1. On day 17 (dotted line), mice were started on daily treatment with vehicle only (Veh) or nalmefene (NaIM) at 0.1 or 0.03 mg/kg by i.p. injection. Shown are mice that were not sick at the time of treatment but developed disease later. *p<0.05 by two-way ANOVA with Holm-Sidak's multiple comparison test."}, "[3]": {"tested_on": "Alcohol consumption (Wistar and AA rat)", "conditions": "cited from earlier work"}, "[4]": {"tested_on": "infiltrating immune cells (CD45high) in brain of EAE mice", "assay": "Immune cell infiltration into the brain of EAE mice (flow cytometry)", "format": "in vivo, C57BL/6 mice", "method": "On day 17, mice were started on daily treatment with vehicle only (Veh) or nalmefene (NaIM) at 0.1 or 0.03 mg/kg by i.p. injection. On day 45 after immunization to induce EAE, mice were culled and immune cells isolated from the brains. Isolation was by Percoll gradient as described in White et al. 2018. Scientific Reports. 8:259. Once isolated, cells were stained with fluorescently labelled antibodies to identify specific immune cell types and analysed by flow cytometry. All infiltrating immune cells were identified by CD45^high expression; CD4 T cells were identified as CD45^highCD4^+, and macrophages as CD45^highCD11b^+Gr-1^−. The relative number of cells is expressed as a ratio to microglia (MG), a brain resident immune cell identified as CD45^mediumCD11b^+. ***p<0.001, **p<0.01, and *p<0.05 by one-way ANOVA with Dunnett's multiple comparison test.\nExperimental detail: EAE was induced in female C57BL/6 mice as described in Example 1. […] Once isolated, cells were stained with fluorescently labelled antibodies to identify specific immune cell types and analysed by flow cytometry. […] The relative number of cells is expressed as a ratio to microglia (MG), a brain resident immune cell identified as CD45^mediumCD11b+. ****p<0.0001 and **p<0.01 by one-way ANOVA with Holm-Sidak's multiple comparison test compared to vehicle."}, "[5]": {"conditions": "treated prior to disease onset, 0.1 or 0.03 mg/kg i.p. daily from day 17"}, "[6]": {"conditions": "Alcohol consumption (AA rat), PO"}},
  "note": "Read-outs that look alike come from different tables or passages of the source.",
  "data": [
    {"smiles": "C=C1CC[C@@]2(O)[C@H]3Cc4ccc(O)c5c4[C@@]2(CCN3CC2CC2)[C@H]1O5", "note": "[nalmefene, (4R,4aS,7aS,12bS)-3-(cyclopropylmethyl)-7-methylidene-2,4,5,6,7a,13-hexahydro-1H-4,12-methanobenzofuro[3,2-e]isoquinoline-4a,9-diol]", "values": [
      {"measurement": "myelination of nerve axons in spinal cord (TEM)", "setting": "[1]", "value": "nerve axons appear healthy and well myelinated"},
      {"measurement": "% demyelination of spinal cord (luxol fast blue)", "setting": "spinal cord of EAE mice", "value": "significant reduction demyelination"},
      {"measurement": "disease score (recovery from paralysis)", "setting": "[2]; 0.1, 0.03 or 0.01 mg/kg i.p. daily from day 17, 45 days", "value": "reduction of disease in all nalmefene-treated groups indicates recovery from paralysis"},
      {"measurement": "reduction in disease (total disability, AUC of daily disease score)", "setting": "[2]; 0.1 and 0.03 mg/kg i.p. daily from day 17, by day 45", "value": 70, "unit": "%"},
      {"measurement": "total disability (AUC of disease score)", "setting": "[2]; 0.1 or 0.03 mg/kg i.p. daily from day 17, by day 45", "value": "significantly lower total disability"},
      {"measurement": "onset of disease", "setting": "[2]; [5]", "value": "did not alter the onset of disease"},
      {"measurement": "recovery from paralysis (disease score)", "setting": "[2]; [5]", "value": "rapid recovery from paralysis"},
      {"measurement": "ED50", "setting": "[3]; [6]", "value": 16.1, "unit": "μg/kq"},
      {"measurement": "Inhibition (%)", "setting": "[3]; [6]", "value": 23, "unit": "%"},
      {"measurement": "Inhibition (%)", "setting": "[3]; Alcohol consumption (Wistar and AA rat), SC, 4 days", "value": 73, "unit": "%"},
      {"measurement": "Inhibition (%)", "setting": "[3]; Alcohol consumption (Wistar and AA rat), SC, 26 days", "value": 67, "unit": "%"},
      {"measurement": "Inhibition (%)", "setting": "[3]; Alcohol consumption (Wistar rat), SC, 6 days", "value": 75, "unit": "%"},
      {"measurement": "In vivo efficacy ED50", "setting": "[3]; SC administration, rat", "value": "0.2 to 0.4", "unit": "mg/kg"},
      {"measurement": "number of infiltrating immune cells in brain (ratio to microglia)", "setting": "[4]; 0.03 mg/kg i.p. daily from day 17, day 45", "value": "significantly reduced the number of infiltrating immune cells"},
      {"measurement": "number of infiltrating immune cells in brain (ratio to microglia)", "setting": "[4]; 0.03 mg/kg i.p. daily from disease onset, chronic phase (>24 days)", "value": "significantly reduced the number of infiltrating immune cells"}
    ]}
  ]
}
